# Calls of active or inactive are those of the source. The rule behind the calls is not given here.
# Tests used:
# [1] = Inhibition of telomerase (unknown origin) incubated for 60 mins at 30 degC followed by 5 mins at 95 degC by TRAP assay; set-up: species or system Homo sapiens
# [2] = Stabilization of 5'-AGGG(TTAGGG)3-3' DNA (unknown origin) assessed as G-quadruplex formation at 1:0.3 to 1:4.5 DNA/ligand molar ratio by circular dichroism analysis in presence of NaCl
# [3] = Stabilization of 5'-AGGG(TTAGGG)3-3' DNA (unknown origin) assessed as G-quadruplex formation at 1:0.3 to 1:4.5 DNA/ligand molar ratio by circular dichroism analysis in presence of KCl
# [4] = Binding affinity to 5'-AGGG(TTAGGG)3-3' DNA (unknown origin) by Benesi-Hildebrand method in presence of K+
# [5] = Binding affinity to 5'-AGGG(TTAGGG)3-3' DNA (unknown origin) by Benesi-Hildebrand method in presence of Na+
# [6] = Binding affinity to double strand 5'-GGGAGGTTTCGC-3' and 5'-GCGAAACCTCCC-3' DNA (unknown origin) assessed as change in melting temperature by spectrophotometry in presence of K+
# [7] = system: Escherichia coli; assay: Binding affinity to Escherichia coli pUC19 DNA assessed as formation of supercoiled DNA at 1 to 5 uM after 1 hr by agarose gel electrophoresis
# [8] = Binding affinity to 5'-AGGG(TTAGGG)3-3' DNA (unknown origin) assessed as change in melting temperature by spectropolarimetry in presence of K+
# [9] = system: Nucleic Acid; assay: Binding affinity to double strand 5'-GGGAGGTTTCGC-3' and 5'-GCGAAACCTCCC-3' DNA (unknown origin) assessed as DNA intercalation at 0.75 to 11.25 uM by circular dichroism analysis in presence of K+; type: nucleic-acid assay
# [10] = Binding affinity to 5'-AGGG(TTAGGG)3-3' DNA (unknown origin) assessed as change in melting temperature by spectropolarimetry in presence of Na+
# [11] = system: Escherichia coli; assay: Binding affinity to Escherichia coli pUC19 DNA assessed as formation of supercoiled DNA at 0.4 to 2.4 uM after 1 hr by agarose gel electrophoresis
# [12] = system: Nucleic Acid; assay: Binding affinity to poly (dG-dC)2 dsDNA (unknown origin) assessed as DNA intercalation at 5 to 50 uM by circular dichroism analysis in presence of NaCl; type: nucleic-acid assay
# [13] = Binding affinity to double strand 5'-GGGAGGTTTCGC-3' and 5'-GCGAAACCTCCC-3' DNA (unknown origin) by Benesi-Hildebrand method in presence of Na+
# [14] = Binding affinity to double strand 5'-GGGAGGTTTCGC-3' and 5'-GCGAAACCTCCC-3' DNA (unknown origin) assessed as change in melting temperature by spectrophotometry in presence of Na+
# [15] = system: Nucleic Acid; assay: Binding affinity to double strand 5'-GGGAGGTTTCGC-3' and 5'-GCGAAACCTCCC-3' DNA (unknown origin) assessed as DNA intercalation at 0.5 to 6.75 uM by circular dichroism analysis in presence of K+; type: nucleic-acid assay
# [16] = system: Nucleic Acid; assay: Binding affinity to poly (dA-dT)2 dsDNA (unknown origin) assessed as DNA intercalation at 5 to 50 uM by circular dichroism analysis in presence of NaCl; type: nucleic-acid assay
# [17] = Binding affinity to 5'-AGGG(TTAGGG)3-3' DNA (unknown origin) assessed as assessed as G-quadruplex formation at 2:1 DNA/ligand molar ratio by circular dichroism analysis in presence of KCl
# [18] = system: Nucleic Acid; assay: Binding affinity to double strand 5'-GGGAGGTTTCGC-3' and 5'-GCGAAACCTCCC-3' DNA (unknown origin) assessed as DNA intercalation at 0.75 to 11.25 uM by circular dichroism analysis in presence of Na+; type: nucleic-acid assay
# [19] = Binding affinity to poly (dA-dT)2 dsDNA (unknown origin) assessed as change in melting temperature at 1:0.15 DNA/ligand ratio by absorbance melting method in presence of Na+
# [20] = Binding affinity to poly (dA-dT)2 dsDNA (unknown origin) assessed as change in melting temperature at 1:0.1 DNA/ligand ratio by absorbance melting method in presence of Na+
# [21] = system: Nucleic Acid; assay: Binding affinity to double strand 5'-GGGAGGTTTCGC-3' and 5'-GCGAAACCTCCC-3' DNA (unknown origin) assessed as DNA intercalation at 0.5 to 6.75 uM by circular dichroism analysis in presence of Na+; type: nucleic-acid assay
# [22] = Binding affinity to double strand 5'-GGGAGGTTTCGC-3' and 5'-GCGAAACCTCCC-3' DNA (unknown origin) by Benesi-Hildebrand method in presence of K+
# [23] = Binding affinity to poly (dA-dT)2 dsDNA (unknown origin) assessed as change in melting temperature at 1:0.05 DNA/ligand ratio by absorbance melting method in presence of Na+
# [24] = system: Calf thymus DNA; assay: Binding affinity to calf thymus DNA assessed as DNA intercalation at 5 to 50 uM by circular dichroism analysis in presence of NaCl; type: nucleic-acid assay; conditions: Bos taurus
# [25] = Binding affinity to poly (dA-dT)2 dsDNA (unknown origin) assessed as change in melting temperature at 1:0.3 DNA/ligand ratio by absorbance melting method in presence of Na+
EC50 [1],Activity [2],Activity [3],Kb [4],Kb [5],ΔTm [6],Activity [7],ΔTm [8],Activity [9],ΔTm [10],Activity [11],Activity [12],Kb [13],ΔTm [14],Activity [15],Activity [16],Activity [17],Activity [18],ΔTm [19],ΔTm [20],SMILES,also measured
6 µM,Active,Active,1.4 ×10⁶ /M,0.7 ×10⁶ /M,5 °C,Active,6 °C,Active,1 °C,Active,Active,1 ×10⁶ /M,5 °C,Active,Active,Active,Active,7 °C,4 °C,CN(C)CCCN1C(=O)c2ccc3c4c(ccc(c24)C1=O)C(=O)N(CCCN(C)C)C3=O,Activity [21]: Active; Kb [22]: 1 ×10⁶ /M; ΔTm [23]: 2 °C; Activity [24]: Active; ΔTm [25]: 13 °C
0.35 µM,Active,Active,3.7 ×10⁶ /M,0.9 ×10⁶ /M,10 °C,Active,9 °C,Active,3 °C,Active,Active,2.5 ×10⁶ /M,10 °C,Active,Active,Active,Active,18 °C,14 °C,O=C1NCCCN2CCN(CCCN3C(=O)c4ccc5c6c(ccc(c46)C3=O)C(=O)N(CCCN3CCN(CCCNC(=O)c4ccc1cc4)CC3)C5=O)CC2,Activity [21]: Active; Kb [22]: 2.6 ×10⁶ /M; ΔTm [23]: 9 °C; Activity [24]: Active; ΔTm [25]: 24 °C

# Reference: ChEMBL document CHEMBL3259816, “Interactions of cyclic and non-cyclic naphthalene diimide derivatives with different nucleic acids” (Bioorg Med Chem, 2014)
